Data as given in patent publication US11147272B2, “Pyridone compounds and agricultural and horticultural fungicides comprising the same as active ingredients” (MITSUI CHEMICALS AGRO, INC., priority 2017, dated 2021).

Tests used:
Magnaporthe grisea = assay: whole plant or invertebrate; assay type: in vivo; conditions: Blast on rice; control value class
Alternaia brassicicola = assay: Test Example C: Alternaria sooty spot on cabbage; assay type: in vivo; conditions: Alternaria sooty spot on cabbage; control value class
Text: Seeds of a test plant (cabbage variety: Shikidori) were planted and cultivated until the cotyledons extended.
<Control Value> Control value=100{1−(n/3)}

Puccinia recondita = assay: Test Example E: Brown rust on wheat; assay type: in vivo; conditions: Brown rust on wheat; control value class
Phytophthora infestans = assay: whole plant or invertebrate; assay type: in vivo; conditions: Late blight on tomato; control value class
Botrytis cinerea = assay: Test Example B: Gray mold on tomato; conditions: Gray mold on tomato; control value class
Plasmopara viticola = assay: Test Example G: Downy mildew on vine; conditions: Downy mildew on vine; 250 ppm spray, 7 to 10 days after inoculation
[1] = test system: Colletotrichum orbiculare; assay: Test Example H: Anthracnose on cucumber; conditions: Anthracnose on cucumber; 250 ppm spray, 6 to 10 days after inoculation
[2] = test system: Blumeria graminis f. sp. hordei; assay: Test Example D: Powdery mildew on barley; conditions: Powdery mildew on barley; control value class

| Compound | Test A control value (Magnaporthe grisea) | Test C control value (Alternaia brassicicola) | Test E control value (Puccinia recondita) | Test F control value (Phytophthora infestans) | Test B control value (Botrytis cinerea) | Test G control value (Plasmopara viticola) | Test H control value [1] | Test D control value [2] |
| --- | --- | --- | --- | --- | --- | --- | --- | --- |
| CCc1cc(Br)c(=O)n(CC)c1-c1ccc(OC)cc1Cl [compound 328] | H (more than 50% control value) | H (more than 50% control value) | H (more than 50% control value) | L (50% or less control value) | H (more than 50% control value) | H (more than 50% control value) | H (more than 50% control value) | L (50% or less control value) |
| CCCc1ccc(=O)n(C)c1-c1ccc(F)cc1Cl [compound 329] | L (50% or less control value) | L (50% or less control value) | H (more than 50% control value) | L (50% or less control value) | H (more than 50% control value) | L (50% or less control value) | L (50% or less control value) | H (more than 50% control value) |
| CCc1cc(Cl)c(=O)n(C)c1-c1ccc(O)cc1Cl [compound 330] | L (50% or less control value) | L (50% or less control value) | L (50% or less control value) | L (50% or less control value) | H (more than 50% control value) | H (more than 50% control value) | L (50% or less control value) | L (50% or less control value) |
| CCCc1ccc(=S)n(CC)c1-c1ccc(F)cc1Cl [compound 331] | L (50% or less control value) | L (50% or less control value) | H (more than 50% control value) | L (50% or less control value) | H (more than 50% control value) | L (50% or less control value) | H (more than 50% control value) | H (more than 50% control value) |
| CCCc1cc(Cl)c(=O)n(C)c1-c1ccc(F)cc1Cl [compound 332] | H (more than 50% control value) | H (more than 50% control value) | H (more than 50% control value) | L (50% or less control value) | H (more than 50% control value) | L (50% or less control value) | H (more than 50% control value) | H (more than 50% control value) |
| CCCc1ccc(=O)n(C)c1-c1ccc(OC)cc1Cl [compound 334] | L (50% or less control value) | L (50% or less control value) | H (more than 50% control value) | L (50% or less control value) | H (more than 50% control value) | L (50% or less control value) | L (50% or less control value) | H (more than 50% control value) |
| CCCc1cc(Cl)c(=O)n(C)c1-c1ccc(OC)cc1Cl [compound 335] | H (more than 50% control value) | H (more than 50% control value) | H (more than 50% control value) | L (50% or less control value) | H (more than 50% control value) | H (more than 50% control value) | H (more than 50% control value) | H (more than 50% control value) |
